# Test results taken from the supplement of paper PMC6045584.
# ± gives the standard deviation of the averaged measurements.
# Assays:
# FLAVOPIRIDOL = compound: CN1CC[C@H](c2c(O)cc(O)c3c(=O)cc(-c4ccccc4Cl)oc23)[C@H](O)C1 [FLAVOPIRIDOL]; test: surviving fraction relative to DMSO-only wells; higher = less growth inhibition; conditions: exposure time: 5 days
# Summary of the method: (§1)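 Log-phase tumour cell lines, 250–500 cells per well in 384-well plates, received inhibitors at 0.5, 1, 5, 10, 50, 100, 500 and 1000 nM continuously for five days, starting 24 hours after seeding. Viability was quantified with CellTiter-Glo luminescence and normalised to the median of DMSO-only wells to give surviving fraction. Three screens were run per line, and a line stayed in only with replicate Pearson r >0.7 and median Z' >0.3.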
# 2-METHOXYESTRADIOL = compound: COc1cc2c(cc1O)CC[C@@H]1[C@@H]2CC[C@]2(C)[C@@H](O)CC[C@@H]12 [2-METHOXYESTRADIOL]; test: as above; conditions: exposure time: 5 days
# Summary of the method: as §1
Test System,surviving fraction (FLAVOPIRIDOL; 0.5 nM),surviving fraction (FLAVOPIRIDOL; 1 nM),surviving fraction (FLAVOPIRIDOL; 5 nM),surviving fraction (FLAVOPIRIDOL; 10 nM),surviving fraction (FLAVOPIRIDOL; 50 nM),surviving fraction (FLAVOPIRIDOL; 100 nM),surviving fraction (FLAVOPIRIDOL; 500 nM),surviving fraction (FLAVOPIRIDOL; 1000 nM),surviving fraction (2-METHOXYESTRADIOL; 0.5 nM),surviving fraction (2-METHOXYESTRADIOL; 1 nM),surviving fraction (2-METHOXYESTRADIOL; 5 nM),surviving fraction (2-METHOXYESTRADIOL; 10 nM),surviving fraction (2-METHOXYESTRADIOL; 50 nM),surviving fraction (2-METHOXYESTRADIOL; 100 nM),surviving fraction (2-METHOXYESTRADIOL; 500 nM),surviving fraction (2-METHOXYESTRADIOL; 1000 nM)
22RV1 PROSTATE,1.04 ± 0.12,0.928 ± 0.16,0.953 ± 0.11,0.893 ± 0.2,0.897 ± 0.11,0.405 ± 0.14,0.124 ± 0.11,0.118 ± 0.086,1.01 ± 0.057,1.09 ± 0.17,1.04 ± 0.07,1.07 ± 0.15,1.03 ± 0.073,0.903 ± 0.16,0.791 ± 0.18,0.646 ± 0.068
93VU HEADNECK,1.04 ± 0.088,1.03 ± 0.012,1.19 ± 0.066,1.12 ± 0.11,0.82 ± 0.011,0.0713 ± 0.0035,0.0237 ± 0.0015,0.0217 ± 0.0015,0.864 ± 0.13,0.829 ± 0.072,1.07 ± 0.096,1.14 ± 0.062,1.09 ± 0.058,0.921 ± 0.017,0.741 ± 0.049,0.788 ± 0.034
143B BONE,1.12 ± 0.14,1.11 ± 0.086,1.11 ± 0.048,1.11 ± 0.095,0.824 ± 0.024,0.279 ± 0.0035,0.045 ± 0.0028,0.042 ± 0.0028,1.04 ± 0.049,1.06 ± 0.054,1.1 ± 0.071,1.09 ± 0.073,1.08 ± 0.071,1.09 ± 0.046,0.536 ± 0.069,0.159 ± 0.016
A549 LUNG,1.04 ± 0.011,1.05 ± 0.015,1.06 ± 0.013,1.05 ± 0.018,1.18 ± 0.028,0.379 ± 0.11,0.0697 ± 0.0058,0.0687 ± 0.0038,0.991 ± 0.016,0.9623 ± 0.0067,0.983 ± 0.018,0.945 ± 0.021,1.02 ± 0.043,1.05 ± 0.015,0.992 ± 0.025,0.544 ± 0.028
ASKA SYNOVIAL,1.02 ± 0.087,1.02 ± 0.066,1.11 ± 0.054,1.11 ± 0.036,0.507 ± 0.065,0.202 ± 0.01,0.186 ± 0.012,0.261 ± 0.0078,1.07 ± 0.086,1.08 ± 0.068,1.05 ± 0.054,1.07 ± 0.054,1.1 ± 0.049,1.03 ± 0.066,0.503 ± 0.039,0.353 ± 0.015
BT20 BREAST,1.21 ± 0.073,1.16 ± 0.022,1.17 ± 0.1,1.013 ± 0.0035,0.742 ± 0.12,0.359 ± 0.012,0.038 ± 0.0062,0.0367 ± 0.004,1.08 ± 0.068,1.09 ± 0.062,1.07 ± 0.082,1.05 ± 0.076,1.24 ± 0.14,1.11 ± 0.067,1.13 ± 0.044,0.662 ± 0.048
BT549 BREAST,1.17 ± 0.052,1.13 ± 0.094,1.11 ± 0.07,0.994 ± 0.021,0.454 ± 0.035,0.074 ± 0.012,0.0343 ± 0.005,0.035 ± 0.007,0.974 ± 0.087,1.05 ± 0.1,1.05 ± 0.12,1.02 ± 0.024,0.968 ± 0.17,1.08 ± 0.14,0.53 ± 0.092,0.106 ± 0.044
C33A CERVIX,0.991 ± 0.084,1.1 ± 0.041,1.12 ± 0.067,1.31 ± 0.13,0.923 ± 0.13,0.366 ± 0.011,0.028 ± 0.0027,0.0277 ± 0.0072,0.689 ± 0.038,0.772 ± 0.04,0.918 ± 0.1,1.03 ± 0.055,0.965 ± 0.031,0.964 ± 0.055,0.482 ± 0.087,0.595 ± 0.028
CADOES1 SOFT TISSUE,0.844 ± 0.099,0.924 ± 0.062,0.843 ± 0.13,0.888 ± 0.082,0.332 ± 0.062,0.146 ± 0.054,0.0357 ± 0.0051,0.038,0.795 ± 0.055,0.875 ± 0.099,0.846 ± 0.11,0.894 ± 0.18,0.886 ± 0.047,0.867 ± 0.15,0.964 ± 0.062,0.358 ± 0.098
CAL51 BREAST,1.02 ± 0.065,0.983 ± 0.092,1.02 ± 0.056,0.877 ± 0.092,0.528 ± 0.0091,0.0968 ± 0.014,0.0297 ± 0.00058,0.03133 ± 0.00029,0.949 ± 0.068,1.01 ± 0.081,0.992 ± 0.018,0.996 ± 0.063,0.967 ± 0.044,1 ± 0.046,0.48 ± 0.036,0.0988 ± 0.0065
